Columns and labels:
[1] = system: U266 cells; test: MTT dose response to anti-myeloma agents, U266; format: cell-based, human; conditions: 24 and 48 hours
Experimental: FIGS. 12A-12B show dose response of myeloma cells to common anti-myeloma agents used in clinics. U266 was one of 4 myeloma cell lines exposed to a panel of anti-myeloma agents in 2-fold titration ([…]). MTT assays were performed to assess cell proliferation inhibition for 24 hours (FIG. 12A) and 48 hours (FIG. 12B). […] Error bars indicate standard deviation.
Myeloma cells were suspended in fresh medium at […] and seeded into 96-well plates in 50-μl aliquots (10,000 cells/well). After treating cells in each well with the appropriate compound (50-μl aliquots of 2× stock solution) and medium control, the methylthiazolyldiphenyl-tetrazolium bromide (MTT) assay kit (Promega, Madison, Wis.) was used to determine cell proliferation, according to manufacturer's instructions. Briefly, dye solution was added to each well (15 μl/well) and incubated for 4 hours at 37° C. and 5% CO2; 100 μl of the solubilization solution/stop mix was then added. The plates were read at 570 nm in a plate reader, and the A570 nm values were corrected by A650 nm. All experiments were conducted in triplicate.
In vitro comparison of EPED3 to ellipticine and four anti-myeloma agents commonly used in clinical treatment regimens was carried out with four myeloma cell lines (JJN3, L363, OCI-MY5, and U266). EPED3, ellipticine, Dox, dexamethasome, VP-16-213, and Velcade were applied in a two-fold dilution series ranging from 0.1 to 6.4 μM. Cell proliferation was assessed using MTT assays 24 and 48 hours after initiating treatments.

[2] = system: U266 cells; test: Flow cytometry apoptosis (Annexin V-FITC/7-AAD); format: cell-based, human; conditions: 12 hours, EPED3 2 μM, Velcade 0.5 μM
Experimental: FIGS. 14A-14L show flowcytometry analyses of cell viability and cell cycle arrest under EPED3 and Velcade treatments. U266 cells were co-cultured without contact with human fetal bone mesenchymal cells. Cells were untreated (Control; FIGS. 14A, 14D, 14G, 14J) or exposed to […] (FIGS. 14B, 14E, 14H, 14K) or […] (FIGS. 14C, 14F, 14I, 14L) for 12 hours and then harvested. Pan-caspase inhibitor Z-VAD-FMK ([…]) was also added to co-cultures (FIGS. 14D-14F and FIGS. 14J-14L) to block caspase-dependent apoptosis and then analyzed for cell cycling arrest. Percent cells in G0+G1 and G2+M phases were measured by the peaks of DNA helix and are gated with each graph (FIGS. 14A-14F). Percent cells with fragmented DNA are indicated as c % in each graph. Cells were also analyzed for apoptotic status (FIGS. 14G-14L) using Coulter Annexin-V FITC/7-AAD kit. Untreated cells (Control; FIGS. 14G and 14J) were maintained at high viability (90%). Early apoptotic cells were gated at G4, and necrotic cells were gated at G2; percent cells in each population are indicated with each graph. The arrows indicate percent viable cells ingested EPED3, whose fluorescent property was captured at channel FL4 (FIGS. 14H, 14K).
Apoptosis was detected using the Annexin V-fluorescein isothiocyanate (FITC)/7-AAD kit (Beckman Coulter, Inc.). Myeloma cells were harvested from co-culture inserts and washed in PBS; 5×10^5 cells were incubated on ice with 100 μl of binding buffer (10 μl Annexin V-FITC and 20 μl of 7-AAD) for 15 minutes. Samples were analyzed using EPICS XL-MCL flowcytometer equipped with EXPO32 ADC software (Beckman Coulter, Inc.).
To investigate the effects of EPED3 on apoptosis and cell cycle arrest of myeloma cells, U266 cells were exposed to EPED3 (2 μM) or Velcade (0.5 μM) in co-culture without direct contact with fetal human bone mesenchymal cells. Twelve hours after treatment, cells were harvested for using flow cytometry to detect ongoing apoptosis and cell cycle arrest.

[3] = system: U266 cells; format: cell-based, human; conditions: for disruption of mitochondria (MitoTracker Red CMXRos): 6 hours, EPED3 2 mM, Velcade 0.5 mM
Description: FIGS. 15A-15C show fluorescent images of EPED3 endoplasmic distribution and induction of apoptosis, which was also detected by Western Blot. […] For analysis by fluorescence microscopy, nuclei were stained with DAPI (blue), mitochondria with MitoTracker Red CMXRos (red), and cytochrome c with FITC-conjugated secondary antibodies (green); EPED3 is excited by ultraviolet light (wavelength<500 nm) and was visualized as gold.
The appearance of large cytoplasmic vacuoles (arrows) and diminished mitochondria in cells treated with EPED3 indicate ongoing apoptosis. […] Cytochrome c disassociation with mitochondria also indicates initiation of the intrinsic apoptotic pathway. […] Protein extracts ([…]) were analyzed by Western blotting, using goat anti-human Caspase-3, -8, and -9 polyclonal antibodies. […] In contrast, both EPED3 and Velcade treatments initiated the intrinsic pathway, which releases cytochrome c to induce rapid cleavage of Caspase-9 into its activated form. The consequent Caspase-3 activation indicates activity of the intracellular proteolytic cascade. Abbreviations: C=Medium control, E=EPED3, V=Velcade.
Myeloma cells were co-cultured with human fetal bone mesenchymal cells in the TC inserts. The cells were treated with individual antimyeloma agents at desired concentrations. An aliquot containing 10^6 cells was transferred to 24-well plate and mixed with MitoTracker Red CMXRos (Invitrogen) at 50 nM final concentration. After a 15-minute incubation, cells were collected and washed with PBS and resuspended at 5×10^5 cells/ml for slide adhesion by the Cytospinning method. […]
Autofluorescence of EPED3 was used to visually examine its effects on myeloma cells. […] Cells that ingested EPED3 were, therefore, discernible by the characteristic golden light emitted under fluorescence microscopy. […]
To further investigate effects of EPED3 on mitochondrial integrity and cytochrome c, treated U266 cells were immunohistochemically analyzed.

[4] = system: myeloma cell lines chronically exposed to Velcade; test: Myeloma cell lines with acquired Velcade tolerance; format: cell-based
[5] = co-culture without direct contact
[6] = with pan-caspase inhibitor Z-VAD-FMK

SMILES | concentration of efficient killing of U266 cells ([1]; without co-culture, MTT) | apoptotic cells [2, 5] [%] | necrotic cells [2, 5] [%] | apoptotic cells [2, 6] [%] | necrotic cells [2, 6] [%] | disruption of mitochondria (MitoTracker Red CMXRos) [3] | tolerance level after chronic exposure ([4]; in vitro chronic exposure to Velcade, several myeloma cell lines) [nM] | concentration with better efficacy on reduction of cell metabolic activity ([1]; U266) [µM] | concentration at which cell proliferation stopped ([1]; U266, MTT) [µM] | cell uptake and distribution (autofluorescence) [3] | cross-tolerance of Velcade-tolerant cells ([4]; data not shown)
CC(C)C[C@H](NC(=O)[C@H](Cc1ccccc1)NC(=O)c1cnccn1)B(O)O [Velcade, bortezomib, reference compound] | less than 0.1 μM | 20.6 | 31.3 | 25 | 2.8 | mitochondrial disruption was not seen | > 5 | – | – | – | –
Cc1c2ccncc2c(C)c2c1[nH]c1ccc(OCCN(C)C)cc12 [NSC 338258, ellipticine, 9-dimethyl amino-ethoxy-] | – | 36 | 9.7 | 8.9 | 18.9 | Disruption of mitochondria | – | ≥ 0.4 | 0.2 | instantly permeated the cells and distributed throughout the cytosol | such Velcade-tolerance did not apply
